“Also recorded” adds a separate entry of the source. Where two headings read alike, the source gives them in different places.
System: AD patients
Settings: for disease severity (CDR Sum of Boxes [CDRSum]): treated; for change in MMSE scores over the 12 month period of the trial: treatment group
Method: In order to determine if the proinflammatory endophenotype predicted treatment response, baseline plasma samples were analyses from a previously conducted trial of the Alzheimer's Disease Cooperative Study (ADCS, Aisen et al 2003, JAMA).
Baseline plasma samples were assayed using enhanced chemiluminescence (ECL) for a range of inflammatory markers. The pro-inflammatory profile was generated using CRP and TNFα. Additional markers can be used to improve the already robust results shown herein. The frequency of the low, middle (referent group) and high ends of the pro-inflammatory profile are presented below.
Blood samples from a previously conducted clinical trial among AD patients was used. This trial was conducted by the Alzheimer's Disease Cooperative Study (ADCS, Aisen et al 2003, JAMA).
Baseline plasma samples were assayed using ECL for a range of inflammatory markers. The pro-inflammatory profile was generated using CRP and TNFα.

COc1ccc2cc([C@H](C)C(=O)O)ccc2c1 [naproxen]
treatment comparison of non-selective with selective NSAIDs (high end of the proinflammatory endophenotype, comparator selective NSAIDs (celecoxib)): superior treatment
disease severity (CDR Sum of Boxes [CDRSum]) (high end of the pro-inflammatory profile, compared to untreated): declined less than those who were untreated
disease severity (CDR Sum of Boxes [CDRSum]) (low end of the pro-inflammatory profile, over 12 months, compared to any other group): progressed in disease severity more rapidly
change in MMSE scores over the 12 month period of the trial (high end of the pro-inflammatory profile (group 3), compared to the low end and the referent group, listed as anti-inflammatory drug): stable over 12 months; also recorded: stable over 12 mo
change in MMSE scores over the 12 month period of the trial (low end of the pro-inflammatory profile (group 1), compared to the referent (middle) group): declined significantly faster
